# Data published in article PMC5793121 (Toxins, 2018).
# Like-named read-outs stand apart in the source and are kept apart here. No end group written: not given here.
# Experiments:
# [1] = molecular target: T1, rat neuronal heteromeric α4β2 nAChR (Rattus norvegicus, UniProt P09483+P12390); assay type: cell-based
# T1 construct: expressed in transfected cells; host or cells: Xenopus laevis oocytes injected with pcDNA3.1 plasmids, α4:β2 1:1
# Protocol: Ovary tissue from adult female Xenopus laevis was cut into small pieces and these pieces were digested with collagenase A (4 mg mL^−1, Worthington Biochemical Corp., Lakewood, NJ, USA) in Barth’s solution without calcium (88.0 mM NaCl, 1.1 mM KCl, 2.4 mM NaHCO3, 0.8 mM MgSO4, 15.0 mM HEPES/NaOH, pH 7.6) for 1.5 ± 2 h at 20 °C. The oocytes were stored in Barth’s solution with calcium (88.0 mM NaCl, 1.1 mM KCl, 2.4 mM NaHCO3, 0.3 mM Ca (NO3)2, 0.4 mM CaCl2, 0.8 mM MgSO4, 15.0 mM HEPES/NaOH, pH 7.6) supplemented with 63.0 μg/mL penicillin-G sodium salt, 40.0 μg/mL streptomycin sulfate and 40.0 μg/mL gentamicin. Stage V ± VI oocytes were selected and injected with 3 ng plasmids coding the rat α4 and β2 nAChR subunits (pcDNA3.1 vector) in a molar ratio of 1:1 using an Auto-Nanoliter Injector NanoJect-2 (Drummond Scientific Company, Broomall, PA, USA) in a total injection volume of 23 nL. After injection, oocytes were incubated at 18 °C in Barth’s solution with calcium for 48–120 h. Electrophysiological recordings were made using a Turbo TEC-03X amplifier (npi electronic GmbH, Tamm, Germany) and WinWCP recording software (University of Strathclyde, Glasgow, UK). […] To allow receptor recovery from desensitization, the oocytes were superfused for 5–10 min with buffer (1 mL/min) between ligand applications. Electrophysiological recordings were performed at a holding potential of −60 mV.
# [2] = for AUC(0 → t) / Cmax / T1/2: single, [125I]-Az, blood radioactivity, 5 animals per time point
# Protocol: The pharmacokinetic study was performed using 163 male ICR mice. Four experimental groups with 40 animals in each were formed. Three intact mice were used as control animals. The animals of the first two experimental groups were intravenously injected with 0.25 and 0.50 mg/kg [^125I]-Az, respectively. The animals of the other two experimental groups were intramuscularly injected with 0.25 and 0.50 mg/kg [^125I]-Az, respectively. To estimate Az elimination rate, animal blood samples were taken from the orbital sinus 5, 15, 30, 60 min and 1, 2, 4 and 24 h after [^125I]-Az administration. The obtained blood samples were weighed. For each indicated time point, [^125I]-Az concentration was calculated as a mean value in blood samples of five animals. The radioactivity (cpm) in the blood samples was counted using a Wallac 1470 WIZARD® Gamma Counter (Perkin Elmer, Waltham, MA, USA). […] Radioactivity data (cpm) were re-calculated to the concentration of [^125I]-Az in the obtained blood samples. The specific pharmacokinetic parameters (AUC (0 → t), Cmax, T1/2) of [^125I]-Az were estimated.
# [3] = tested on: human muscle-type nAChR adult form α1β1εδ; details: Xenopus oocytes; cited from earlier work
# Sprague Dawley rats = assay type: in vivo, rat; set-up: number of platelets / increase of platelet count from control: unit not given here
# Protocol: A repeated dose 14-day intramuscular toxicity study was conducted on 36 SD male and 36 SD female adult rats. They were divided into 3 groups. The first control group was given normal saline, the second and the third experimental groups received Az at doses of 0.1 mg/kg and 0.5 mg/kg, respectively, daily for 14 days. The substances were injected into the quadriceps muscle of the thigh. Every day the animals were examined and any clinical signs of intoxication, body weight and food intake were recorded. The one half of the animals were euthanized on the 15th day of the study, the second half—after a 2-week cancellation period on the 29th day of the study. All animals were autopsied and their organs were inspected for any pathological signs, weighed and histologically examined. The ratio of organ-to-body weight was calculated for several organs: brain, heart, liver, spleen, thymus, kidneys, lungs, testicles and ovaries. The histological analysis was carried out for a number of organs: kidney, adrenal glands, testis, ovary, spleen, thymus, brain, heart, lung, liver, lymph node (mesenteric and mandibular), stomach, skin and muscle from the site of the administration.
# A biochemical analysis of blood serum parameters was performed. A level of aspartate aminotransferase, alanine aminotransferase, glutamate dehydrogenase, alkaline phosphatase, gamma-glutamyl transferase, urea nitrogen, creatinine, total bilirubin, total protein, albumin, globulin, phosphorus, calcium, total cholesterol, triglycerides, albumin/globulin ratio was estimated. The analysis was performed using Randox GB reagent kits for each tested parameter and the automatic biochemical analyzer Sapphire-400 (Tokyo Boeki Ltd., Toyko, Japan).
# A hematological analysis of animal blood included the evaluation of red and white blood cell number, a hemoglobin level, hematocrit, red cell distribution width, mean corpuscular volume (MCV), mean corpuscular hemoglobin (MCH), mean corpuscular hemoglobin concentration (MCHC), platelets number, a mean platelet volume, a mean platelet component and a cell number of neutrophils, eosinophils, basophils, lymphocytes, monocytes, large unstained cells, reticulocytes. The analysis was performed using a hematological analyzer Mythic 18 Vet (C2 D[…].A., Montpellier, France).
# male and female ICR mice = assay type: in vivo, mouse; details: 0.15 mg/kg subcutaneously, n = 10
# Protocol: Allergenicity of Az was studied in a delayed-type hypersensitivity test on male (20 animals) and female (20 animals) adult ICR mice. The mice were divided into four groups (two control and two experimental groups) of 10 animals (males or females) per group. Mice of the experimental groups were injected subcutaneously at the base of a tail with Az solution (0.15 mg/kg) emulsified in Freund’s complete adjuvant in a ratio of 1:1 (2 mL/kg). Similarly, the mice in the control groups were administered with a suspension of normal saline in Freund’s complete adjuvant. Five days later all animals received an injection of Az (0.15 mg/kg, 1.33 mL/kg) in the pad of the left hind paw. To estimate the intensity of the studied allergic reaction, 6, 12 and 24 h after the second Az injection the thickness of the left and right hind mouse paws was measured with a digital caliper.
# mice = details: intraperitoneal administration to mice; cited from earlier work
# [4] = molecular target: muscle-type Torpedo nicotinic acetylcholine receptor (nAChR); details: cited from earlier work
# T1 sequence (P09483 31-630): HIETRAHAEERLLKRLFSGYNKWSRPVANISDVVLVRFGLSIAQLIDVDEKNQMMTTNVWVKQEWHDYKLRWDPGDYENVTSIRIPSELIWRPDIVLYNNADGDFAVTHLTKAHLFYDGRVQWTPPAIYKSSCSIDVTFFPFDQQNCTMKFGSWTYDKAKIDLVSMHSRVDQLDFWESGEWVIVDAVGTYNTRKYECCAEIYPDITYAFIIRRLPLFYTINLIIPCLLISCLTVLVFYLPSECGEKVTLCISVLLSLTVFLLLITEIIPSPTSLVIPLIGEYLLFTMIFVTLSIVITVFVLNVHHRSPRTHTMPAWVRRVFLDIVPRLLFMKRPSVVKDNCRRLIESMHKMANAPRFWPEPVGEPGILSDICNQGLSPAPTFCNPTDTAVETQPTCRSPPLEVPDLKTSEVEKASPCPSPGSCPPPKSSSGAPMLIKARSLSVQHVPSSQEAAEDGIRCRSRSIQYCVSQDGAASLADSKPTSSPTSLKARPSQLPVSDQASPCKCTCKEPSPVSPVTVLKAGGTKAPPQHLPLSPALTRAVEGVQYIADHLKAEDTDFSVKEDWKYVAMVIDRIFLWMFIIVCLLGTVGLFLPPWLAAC
# T1 sequence (P12390 25-500): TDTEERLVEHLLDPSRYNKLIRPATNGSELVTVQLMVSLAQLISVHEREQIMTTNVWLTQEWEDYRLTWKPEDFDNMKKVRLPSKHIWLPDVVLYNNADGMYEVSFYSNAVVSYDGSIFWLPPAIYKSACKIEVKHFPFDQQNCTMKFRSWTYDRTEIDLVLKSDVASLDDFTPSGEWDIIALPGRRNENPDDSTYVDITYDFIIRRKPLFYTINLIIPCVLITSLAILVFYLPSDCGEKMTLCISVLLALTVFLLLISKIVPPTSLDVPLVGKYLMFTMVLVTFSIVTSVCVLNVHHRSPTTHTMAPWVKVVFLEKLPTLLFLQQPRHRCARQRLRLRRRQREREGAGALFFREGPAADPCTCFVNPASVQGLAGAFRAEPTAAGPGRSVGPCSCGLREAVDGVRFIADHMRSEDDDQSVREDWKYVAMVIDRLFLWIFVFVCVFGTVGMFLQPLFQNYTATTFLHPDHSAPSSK
substance,measurement,setting,value
"DNWWPKPPHQGPRPPRPRPKP-NH2 [Az, azemiopsin]",influence on ion currents induced by 20 μM nicotine in α4β2 nAChR,[1],no influence
same,effect on heteromeric rat α4β2 nAChR,[1]; concentrations up to 100 μM,no effect
same,excretion half-life,"[2]; depending on administration way (iv or im), mice",15 to 40 min
same,AUC(0 → t),"[2]; im 0.25 mg/kg, male ICR mice",328 ng·h/mL
same,Cmax,"[2]; im 0.25 mg/kg, male ICR mice",278 ng/mL
same,T1/2,"[2]; im 0.25 mg/kg, male ICR mice",18 min
same,AUC(0 → t),"[2]; im 0.50 mg/kg, male ICR mice",622 ng·h/mL
same,Cmax,"[2]; im 0.50 mg/kg, male ICR mice",257 ng/mL
same,T1/2,"[2]; im 0.50 mg/kg, male ICR mice",40.8 min
same,half-life T1/2,"[2]; intramuscular administration, 0.25 and 0.5 mg/kg, male ICR mice",20 to 40 min
same,AUC(0 → t),"[2]; iv 0.25 mg/kg, male ICR mice",214 ng·h/mL
same,Cmax,"[2]; iv 0.25 mg/kg, male ICR mice",517 ng/mL
same,T1/2,"[2]; iv 0.25 mg/kg, male ICR mice",15.6 min
same,AUC(0 → t),"[2]; iv 0.50 mg/kg, male ICR mice",542 ng·h/mL
same,Cmax,"[2]; iv 0.50 mg/kg, male ICR mice",745 ng/mL
same,T1/2,"[2]; iv 0.50 mg/kg, male ICR mice",17.4 min
same,IC50,[3],0.44 ± 0.1 µM
same,changes in the hemogram relative to control,Sprague Dawley rats; 0.1 mg/kg im 14 days,did not lead to any changes
same,increase in mean body weight and food intake vs control,Sprague Dawley rats; 0.1 and 0.5 mg/kg im 14 days,did not differ significantly
same,histological analysis of organs and tissues,"Sprague Dawley rats; 0.1 and 0.5 mg/kg im 14 days, rats",No pathological changes
same,lowering of cholesterol level from control,"Sprague Dawley rats; female rats, 0.1 mg/kg",0.73 mmol/L
same,level of calcium in blood serum,"Sprague Dawley rats; female rats, 0.1 mg/kg, end of 28-day experiment, n = 6, control 3.25 ± 0.09",3090 ± 60 µM
same,level of cholesterol in blood serum,"Sprague Dawley rats; female rats, 0.1 mg/kg, end of 28-day experiment, n = 6, control 3.55 ± 0.39",2820 ± 360 µM
same,decrease of triglyceride level from control,Sprague Dawley rats; male rats receiving Az,0.28 mmol/L
same,difference of relative heart mass from control,Sprague Dawley rats; male rats receiving Az,0.076%
same,increase of platelet count from control,Sprague Dawley rats; male rats receiving Az,81
same,number of platelets,"Sprague Dawley rats; male rats, 0.5 mg/kg im 14 days, n = 6, control 729 ± 22",810 ± 39
same,mean level of triglycerides in blood serum,"Sprague Dawley rats; male rats, 0.5 mg/kg, end of 28-day experiment, n = 6, control 1.25",970 µM
same,mean relative heart weight,"Sprague Dawley rats; male rats, 0.5 mg/kg, two weeks after administration, n = 6, control 0.428 ± 0.086",0.352 ± 0.033%
same,allergic effect in the delayed-type hypersensitivity reaction test,male and female ICR mice,no allergic effect
same,LD50,mice,2.57 ± 0.27 mg/kg
same,IC50,[4],0.18 ± 0.03 µM
